Data published in patent US8263562B2, “Peptides for preventing or treating liver damage” (priority 2006, dated 2012).
Read-outs that look alike come from different tables or passages of the source.

Legend:
[1] = tested on: Sera of Patients with HCV (anti-HCV antibody-positive sera); test: Indirect ELISA, reactivity of the peptides to anti-HCV antibody-positive sera; type: binding, human; settings: for reactivity to sera of patients with HCV compared to sera of patients with HBV and healthy donors: X^2-test; for Percentage of Positive Cases (%) / The Number of Positive Cases: anti-HCV antibody-positive sera of 30 patients, sera dilution 1:100, 10 μg peptide coated
Protocol: Anti-HCV antibody-positive sera: randomly obtained from inpatients infected with HCV in the Liberation Army 302 Hospital from 2000 to 2001.
(§1) The reactivity of the individual peptide of the invention to sera was detected by standard indirect ELISA technology using Model DG3022 Enzyme-Linked Immunoassay Analyzer (purchased from Perkin Elmer Corporation). 10 μg of Peptide A, Peptide B, Peptide C, and Peptide Conjugate A were added respectively into the basic coating buffer (0.1 mol/L NaHCO3, 35 μl; 0.1 mol/L Na2CO3, 15 μl; H2O, 50 μl), and then transferred into the wells of polypropylene/ethylene microtiter plate, and placed at 4° C. overnight. After adding 120 μl of FCS-PBS, each well was blocked at 37° C. for 2 hours. Sera (dilution of 1:100) were then added to the wells, and incubated at 37° C. for 1 hour. Goat anti-human IgGs (dilution of 1:1000) (purchased from Sino-American Biotechnology Company, Beijing) were then added to the wells, and incubated at 37° C. for 1 hour. 50 μl of Solution A and Solution B (purchased from Beijing Kewei Reagent Company) were added to every well, placed in the dark for 5 min, and then the absorbance at 450 nm was measured.

[2] = tested on: sera of patients with HBV; test: Indirect ELISA, reactivity of the peptides to sera of patients with Hepatitis B; type: binding, human; settings: sera of 10 patients with HBV
Protocol: Sera of patients with Hepatitis B (HBV): obtained from inpatients with Hepatitis B in the Liberation Army 302 Hospital, who was positive for the surface antigen of Hepatitis B virus as assayed.
as §1

[3] = tested on: sera of healthy donors; test: Indirect ELISA, reactivity of the peptides to control sera of healthy donors; type: binding, human; settings: sera of 10 healthy donors
Protocol: Control sera: obtained from healthy blood donors, who had normal blood indexes in each assay.
as §1

[4] = tested on: IL-4; test: Level of IL-4 in sera of immunized mice by ELISA; type: in vivo, BALB/c Mice; settings: first day after the fourth immunization
Protocol: (§2) BALB/c Mice, all of which are male, 6 week old, and purchased from the Laboratory Animal Center of Academy Of Military Medical Sciences, Beijing, were divided into 4 groups as follows with 5 mice in each group: (1) the control group; (2) the Peptide A group, immunized with Peptide A; (3) the Peptide B group, immunized with Peptide B; and (4) the Peptide C group, immunized with Peptide C.
(§3) 50 μl of the peptide (100 μg/μl) used in the corresponding group and 50 μl of Freund's complete adjuvant (GIBCOBRL Corp.) were mixed thoroughly with a microstirrer, and the mixture was injected into the claw pad of a mouse, thereby the first immunization was performed for each of the mice. 14 days later, booster immunization was performed in the same manner as the first immunization with 50 μl of the peptide (100 μg/μl) used in the corresponding group and 50 μl of Freund's complete adjuvant (GIBCOBRL Corp.). 14 days later, another booster immunization was performed in the same manner. 14 days later, boost immunization was performed by injecting 100 μg of the peptide dissolved in 200 μl PBS into the mouse intramuscularly. During the process of immunization, only the corresponding adjuvant and PBS were injected for the control group. At the first day after the fourth immunization, mice were sacrificed and sera were collected.
(§4) According to the specification of the manufacturer, the levels of cytokines (i.e., IL-4, IL-10, and γ-IFN) in sera of the above immunized mice were detected respectively by using IL-4 Quantikine ELASA Kit, IL-10 Quantikine ELASA Kit, and γ-IFN Quantikine ELASA Kit (all of which are purchased from R&D, Inc.).

[5] = tested on: IL-10; test: Level of IL-10 in sera of immunized mice by ELISA; type: in vivo, BALB/c Mice; settings: first day after the fourth immunization
Protocol: as §2, §3, §4

[6] = tested on: γ-IFN; test: Level of γ-IFN in sera of immunized mice by ELISA; type: in vivo, BALB/c Mice; settings: first day after the fourth immunization
Protocol: as §2, §3, §4

[7] = tested on: BCG vaccine and lipopolysaccharide-induced immunological liver damage; type: in vivo, Wistar Rats; settings: for pathological condition of liver (score) versus model group: P<0.05
[8] = tested on: D-aminogalactose-induced acute liver damage; test: D-aminogalactose-induced acute liver damage of rats; type: in vivo, Wistar Rats
From the text: Wistar Rats (body weight of each was 180 g˜220 g; half of them were male and the others were female; and they were purchased from Shanghai Slac Laboratory Animal, Inc.) were divided randomly into 6 groups as follows with 10 rats in each group: (1) the diammonium glycyrrhizinate injection group, injected with diammonium glycyrrhizinate; (2) the high dose group, immunized with Peptide A and adjuvant; (3) the medium dose group, immunized with Peptide A and adjuvant; (4) the low dose group, immunized with Peptide A and adjuvant; (5) the blank control group; and (6) the model group.
Rats in the high dose group, the medium dose group and the low dose group were immunized as follows: At Day 0, the first immunization was performed by the following process: 100 μl of Peptide A dissolved in physiological saline was mixed thoroughly with the equivalent volume of Freund's complete adjuvant, and then 0.2 ml of the resultant water-in-oil emulsion was administered via subcutaneous injection to each rat, wherein the dosage of Peptide A contained in the emulsion was 174 μg/kg rat body weight for the high dose group, 87 μg/kg rat body weight for the medium dose group, and 43.5 μg/kg rat body weight for the low dose group respectively. 14 days later, the second immunization was performed in the same dosage and manner as the first immunization except that, Freund's complete adjuvant was replaced by Freund's incomplete adjuvant. […]
At the 48th hour after intraperitoneally injecting D-aminogalactose, each rat was sacrificed by cervical dislocation, and blood was collected. After sera were isolated, according to the specification of the manufacturer, the activities of glutamic-pyruvic transaminase (SGPT) and glutamic-oxalacetic transaminase (SGOT) in sera were detected respectively by using Glutamic-pyruvic Transaminase Detection Kit (purchased from Nanjing Jiancheng Bioengineering Institute) and Glutamic-oxalacetic Transaminase Detection Kit (purchased from Nanjing Jiancheng Bioengineering Institute).

[9] = tested on: γ-IFN; test: Effects of the peptide on γ-IFN of rats in vivo; set-up: species or system SD Rats; settings: four immunizations
From the text: SD Rats (body weight of each was 180 g˜220 g; half of them were male and the others were female; and they were purchased from the Animal Institute of Academy Of Military Medical Sciences) were divided randomly into 5 groups as follows with 10 rats in each group: (1) the blank control group; (2) the adjuvant control group; (3) the high dose group, immunized with Peptide A and adjuvant; (4) the low dose group, immunized with Peptide A and adjuvant; and (5) the peptide group, immunized with Peptide A only.
Rats in the high dose group and the low dose group were immunized as follows: At Day 0, the first immunization was performed by the following process: Peptide A dissolved in physiological saline was mixed thoroughly with the equivalent volume of Freund's complete adjuvant, and then 0.1 ml of the resultant water-in-oil emulsion was administered via subcutaneous injection to each rat, wherein the dosage of Peptide A contained in the emulsion was 50 μg/kg rat body weight for the high dose group and 25 μg/kg rat body weight for the low dose group respectively. […]
At the first day after the fourth immunization, rats from every group were sacrificed and splenocytes were collected. […] According to the specification of the manufacturer, the level of γ-IFN in sera of the above immunized rats was detected by using γ-IFN ELASA Quantikine ELASA Kit (purchased from R&D, Inc.).

[10] = tested on: tetrachloromethane-induced liver damage; test: Tetrachloromethane-induced liver damage of mice; type: in vivo, BALB/c mice
Protocol: At the first before the first immunization, 0.05 ml CCl4 (available from Shanghai Linfen Chemical Reagent Co., Ltd.) was administered via subcutaneous injection to each mouse of all groups other than the blank control group; and the equivalent volume of physiological saline was injected for the blank control group.
Mice in the high dose group, the medium dose group and the low dose group were immunized as follows: the first immunization was performed by the following process: 1000 of Peptide A dissolved in physiological saline was mixed thoroughly with the equivalent volume of Freund's complete adjuvant, and then 0.2 ml of the resultant water-in-oil emulsion was administered via subcutaneous injection to each mouse, wherein the dosage of Peptide A contained in the emulsion was 250 μg/kg mouse body weight for the high dose group, 125 μg/kg mouse body weight for the medium dose group, and 62.5 μg/kg mouse body weight for the low dose group respectively. 14 days later, the second immunization was performed in the same dosage and manner as the first immunization except that, Freund's complete adjuvant was replaced by Freund's incomplete adjuvant. 14 days later, the third immunization was performed in the same dosage and manner as the first immunization except that, Freund's complete adjuvant was replaced by Freund's incomplete adjuvant. 14 days later, the fourth immunization was performed by the following process: 0.1 ml of Peptide A dissolved in physiological saline was administered without any adjuvants via intraperitoneal injection to each rat, wherein the dosage of Peptide A was 250 μg/kg mouse body weight for the high dose group, 125 μg/kg mouse body weight for the medium dose group, and 62.5 μg/kg mouse body weight for the low dose group respectively.
At the days of immunization for the high dose group, the medium dose group and the low dose group, starting at Day 0, the corresponding physiological saline was injected into each rat of the model group and the blank control group, for up to four times; meanwhile, the corresponding adjuvant and physiological saline were injected for the adjuvant control group, for up to four times.
At the first day before the fourth immunization, 0.05 ml CCl4 was administered via subcutaneous injection to each mouse of all groups other than the blank control group; and the equivalent volume of physiological saline was injected for the blank control group. At the second day after the fourth immunization, all of mice were sacrificed.
Just before sacrificing all mice, each rat was weighed, and then sacrificed by cervical dislocation. Then Blood was collected, before sera were isolated.

[11] = 13.5 mg/kg intraperitoneal, every day for 7 days
[12] = high, medium, low dosage (174, 87, 43.5 μg/kg) without adjuvants, subcutaneous, four immunizations, 12 h after LPS
[13] = high, medium, low dosage (174, 87, 43.5 μg/kg) with adjuvant, four immunizations, 48 h after D-aminogalactose 600 mg/kg
[14] = high, medium, low dosage (250, 125, 62.5 μg/kg) with adjuvant, four immunizations, CCl4 subcutaneous

| Molecule | reactivity to sera of patients with HCV compared to sera of patients with HBV and healthy donors [1] | Percentage of Positive Cases (%) [1] [%] | The Number of Positive Cases [1] | reactivity in ELISA Assay to sera of patients with HBV [2] | reactivity in ELISA Assay to sera of healthy donors [3] | IL-4(pg/ml serum) [4] [pg/ml serum] | IL-10(pg/ml serum) [5] [pg/ml serum] | γ-IFN(pg/ml serum) [6] [pg/ml serum] | other results |
| --- | --- | --- | --- | --- | --- | --- | --- | --- | --- |
| GQTYTSGA [Peptide B] | significantly react | 50 | 15 | negative | negative | 30.64 ± 4.9 | 27.94 ± 6.4 | 28.46 ± 5.9 | – |
| CC1(C)[C@@H](O[C@H]2O[C@H](C(=O)O)[C@@H](O)[C@H](O)[C@H]2O[C@@H]2O[C@H](C(=O)O)[C@@H](O)[C@H](O)[C@H]2O)CC[C@]2(C)[C@H]3C(=O)C=C4[C@@H]5C[C@@](C)(C(=O)O)CC[C@]5(C)CC[C@@]4(C)[C@]3(C)CC[C@@H]12.N.N [diammonium glycyrrhizinate injection, diammonium glycyrrhizinate, reference compound] | – | – | – | – | – | – | – | – | protective effect on liver damage of rats (SGPT, SGOT) [7, 11]: no significant protective effect; protective effect on liver damage of rats (pathological condition score) [7, 11]: no significant protective effect; protective effect on acute liver damage of rats (SGPT, SGOT) [8, 11]: significant protective effect |
| GQTYTSGG [Peptide C] | significantly react | 47 | 14 | negative | negative | 31.22 ± 5.0 | 26.926 ± 5.8 | 24.81 ± 5.8 | – |
| GQTYTSG [Peptide A] | significantly react | 43 | 13 | negative | negative | 29.64 ± 4.9 | 27.94 ± 6.4 | 23.46 ± 5.9 | level of γ-IFN, Peptide A only with no adjuvant, versus same dosage of Peptide A and adjuvant ([9]; 50 μg/kg subcutaneous): even higher; γ-IFN in sera of the immunized rats compared to both of the control groups ([9]; Peptide A 50 or 25 μg/kg with adjuvant, or 50 μg/kg without adjuvant, FIG. 2): significant increase; pathological condition of liver (score) versus model group ([7]; high and medium dosage (174, 87 μg/kg) without any adjuvants): significant alleviation; level of glutamic-oxalacetic transaminase (SGOT) in sera versus model group [7, 12]: significant decrease; level of glutamic-pyruvic transaminase (SGPT) in sera versus model group [7, 12]: significant decrease; pathological condition of liver (score) versus model group ([7]; low dosage (43.5 μg/kg) with adjuvant): significant alleviation; protective effect on acute immunological liver damage (SGPT, SGOT) ([7]; low dose & adjuvant group, 43.5 μg/kg): protective effect; level of glutamic-oxalacetic transaminase (SGOT) in sera versus model group [8, 13]: significant decrease; level of glutamic-pyruvic transaminase (SGPT) in sera versus model group [8, 13]: significant decrease; tetrachloromethane-induced hepatomegaly of mice ([10]; 250 μg/kg mouse body weight): significant reduction; pathological conditions of the liver tissues (score) versus model group ([10]; high dose group, 250 μg/kg with adjuvant): alleviated significantly; level of glutamic-oxalacetic transaminase (SGOT) in sera versus model group [10, 14]: significant decrease; level of glutamic-pyruvic transaminase (SGPT) in sera versus model group [10, 14]: significant decrease |
